# Earlier results, collected in patent US7026311B2, “Dibenzodiazepine derivatives, their preparation and use” (Abbott GmbH & Co., KG, priority 2002, dated 2006).
# Settings: S. Cuzzocrea et al., Br. J. Pharmacol. 1997
smiles,measurement,value
"NC(=O)c1cccc(N)c1 [Example 3-aminobenzamide, 3-aminobenzamide]",effects in a model of circulatory shock,protective effects
